The source made the active and inactive calls. No cut-off for these calls is given here.
Key:
[1] = test system: Hep 3B2; assay: Cytotoxicity against human Hep3B cells assessed as decrease in cell proliferation after 48 hrs by MTT colorimetric assay; format: functional, cell-based
[2] = test system: MCF7; assay: Cytotoxicity against human MCF7 cells assessed as decrease in cell proliferation after 48 hrs by MTT colorimetric assay; format: functional, cell-based; conditions: for IC50: Homo sapiens, MCF7, 48 h
[3] = test system: A549; assay: Cytotoxicity against human A549 cells assessed as decrease in cell proliferation after 48 hrs by MTT colorimetric assay; format: functional, cell-based; conditions: A549, 48 h
[4] = test system: U-251; assay: Cytotoxicity against human U251 cells assessed as decrease in cell proliferation after 48 hrs by MTT colorimetric assay; format: functional, cell-based; conditions: U-251, 48 h
[5] = test system: HepG2; assay: Cytotoxicity against human HepG2 cells assessed as decrease in cell proliferation after 48 hrs by MTT colorimetric assay; format: functional, cell-based; conditions: HepG2, 48 h
[6] = test system: Bcap37; assay: Cytotoxicity against human Bcap37 cells assessed as decrease in cell proliferation after 48 hrs by MTT colorimetric assay; format: functional, cell-based; conditions: Bcap37, 48 h
[7] = test system: A549; assay: Potency index, ratio of sarsasapogenin IC50 to test compound IC50 for human A549 cells; format: functional
[8] = test system: HepG2; assay: Potency index, ratio of sarsasapogenin IC50 to test compound IC50 for human HepG2 cells; format: functional
[9] = test system: MCF7; assay: Induction of apoptosis in human MCF7 cells assessed as early apoptotic cells at 3 uM after 48 hrs by annexin-V/propidium iodide staining-based flow cytometric method (reference value: 1.17%); format: functional
[10] = test system: MCF7; assay: Cell cycle arrest in human MCF7 cells assessed as accumulation at G2/M phase at 1.5 to 6 uM after 48 hrs by propidium iodide staining-based flow cytometric method; format: functional
[11] = test system: MCF7; assay: Induction of apoptosis in human MCF7 cells assessed as late apoptotic cells at 1.5 uM after 48 hrs by annexin-V/propidium iodide staining-based flow cytometric method (reference value: 1.43%); format: functional
[12] = test system: MCF7; assay: Induction of apoptosis in human MCF7 cells assessed as formation of apoptotic bodies at 1.5 to 6 uM after 48 hrs by inverted phase contrast microscopic method; format: functional, cell-based
[13] = test system: MCF7; assay: Induction of apoptosis in human MCF7 cells assessed as early apoptotic cells at 6 uM after 48 hrs by annexin-V/propidium iodide staining-based flow cytometric method (reference value: 1.17%); format: functional
[14] = test system: MCF7; assay: Induction of apoptosis in human MCF7 cells assessed as cell shrinkage at 1.5 to 6 uM after 48 hrs by inverted phase contrast microscopic method; format: functional, cell-based
[15] = test system: MCF7; assay: Induction of apoptosis in human MCF7 cells assessed as cell rounding at 1.5 to 6 uM after 48 hrs by inverted phase contrast microscopic method; format: functional, cell-based
[16] = test system: MCF7; assay: Induction of apoptosis in human MCF7 cells assessed as membrane blebbing at 1.5 to 6 uM after 48 hrs by inverted phase contrast microscopic method; format: functional, cell-based
[17] = test system: MCF7; assay: Induction of apoptosis in human MCF7 cells assessed as early apoptotic cells at 1.5 uM after 48 hrs by annexin-V/propidium iodide staining-based flow cytometric method (reference value: 1.17%); format: functional
[18] = test system: MCF7; assay: Induction of apoptosis in human MCF7 cells assessed as late apoptotic cells at 3 uM after 48 hrs by annexin-V/propidium iodide staining-based flow cytometric method (reference value: 1.43%); format: functional
[19] = test system: MCF7; assay: Induction of apoptosis in human MCF7 cells assessed as upregulation of cleaved PARP level at 6 uM after 48 hrs by Western blot method relative to control; format: functional
[20] = test system: MCF7; assay: Potency index, ratio of sarsasapogenin IC50 to test compound IC50 for human MCF7 cells; format: functional
[21] = test system: MCF7; assay: Induction of apoptosis in human MCF7 cells assessed as late apoptotic cells at 6 uM after 48 hrs by annexin-V/propidium iodide staining-based flow cytometric method (reference value: […]); format: functional
[22] = test system: MCF7; assay: Induction of apoptosis in human MCF7 cells assessed as upregulation of cleaved caspase 7 level at 6 uM after 48 hrs by Western blot method relative to control; format: functional
[23] = test system: MCF7; assay: Cell cycle arrest in human MCF7 cells assessed as accumulation at sub-G1 phase at 1.5 to 6 uM after 48 hrs by propidium iodide staining-based flow cytometric method; format: functional

C[C@@H](CC[C@H]1O[C@H]2C[C@H]3[C@@H]4CC[C@@H]5C[C@@H](OCc6ccc(F)cc6)CC[C@]5(C)[C@H]4CC[C@]3(C)[C@H]2[C@@H]1C)CN(C)C
IC50 [1]: > 100 µM | IC50 [2]: 17.9 µM | IC50 [3]: 4.02 µM | IC50 [4]: 14.1 µM | IC50 [5]: 27.2 µM | IC50 [6]: > 100 µM | Ratio IC50 [7]: 9.5

COc1ccc(CO[C@H]2CC[C@@]3(C)[C@H](CC[C@@H]4[C@@H]3CC[C@]3(C)[C@H]5[C@H](C)[C@@H](CC[C@H](C)CN6CCCC6)O[C@H]5C[C@@H]43)C2)cc1
IC50 [1]: 69.9 µM | IC50 [2]: > 100 µM | IC50 [3]: > 100 µM | IC50 [4]: > 100 µM | IC50 [5]: > 100 µM | IC50 [6]: > 100 µM

COc1ccc(CO[C@H]2CC[C@@]3(C)[C@H](CC[C@@H]4[C@@H]3CC[C@]3(C)[C@H]5[C@H](C)[C@@H](CC[C@H](C)CN(C)C)O[C@H]5C[C@@H]43)C2)cc1
IC50 [1]: 23.4 µM | IC50 [2]: > 100 µM | IC50 [3]: > 100 µM | IC50 [4]: > 100 µM | IC50 [5]: 79.5 µM | IC50 [6]: > 100 µM

C[C@@H](CC[C@H]1O[C@H]2C[C@H]3[C@@H]4CC[C@@H]5C[C@@H](OCc6ccccc6)CC[C@]5(C)[C@H]4CC[C@]3(C)[C@H]2[C@@H]1C)CN1CCN(C)CC1
IC50 [1]: 70.8 µM | IC50 [2]: > 100 µM | IC50 [3]: > 100 µM | IC50 [4]: > 100 µM | IC50 [5]: 52.3 µM | IC50 [6]: > 100 µM

CCN(CC)C[C@@H](C)CC[C@H]1O[C@H]2C[C@H]3[C@@H]4CC[C@@H]5C[C@@H](OCc6ccccc6)CC[C@]5(C)[C@H]4CC[C@]3(C)[C@H]2[C@@H]1C
IC50 [1]: 28.2 µM | IC50 [2]: 93 µM | IC50 [3]: 67.2 µM | IC50 [4]: > 100 µM | IC50 [5]: 44 µM | IC50 [6]: > 100 µM

C[C@H]1CC[C@@]2(OC1)O[C@H]1C[C@H]3[C@@H]4CC[C@@H]5C[C@@H](O)CC[C@]5(C)[C@H]4CC[C@]3(C)[C@H]1[C@@H]2C [SARSASAPOGENIN]
IC50 [1]: > 100 µM | IC50 [2]: 49.2 µM | IC50 [3]: 38.1 µM | IC50 [4]: > 100 µM | IC50 [5]: 40.3 µM | IC50 [6]: > 100 µM

COc1ccc(CO[C@H]2CC[C@@]3(C)[C@H](CC[C@@H]4[C@@H]3CC[C@]3(C)[C@H]5[C@H](C)[C@@H](CC[C@H](C)CN6CCN(C)CC6)O[C@H]5C[C@@H]43)C2)cc1
IC50 [1]: > 100 µM | IC50 [2]: 3.74 µM | IC50 [3]: 6.78 µM | IC50 [4]: 8.37 µM | IC50 [5]: 21.4 µM | IC50 [6]: 9.12 µM

C[C@@H](CC[C@H]1O[C@H]2C[C@H]3[C@@H]4CC[C@@H]5C[C@@H](OCc6ccccc6)CC[C@]5(C)[C@H]4CC[C@]3(C)[C@H]2[C@@H]1C)CN(C)C
IC50 [1]: 28.3 µM | IC50 [2]: > 100 µM | IC50 [3]: 91.3 µM | IC50 [4]: > 100 µM | IC50 [5]: 42.7 µM | IC50 [6]: > 100 µM

C[C@@H](CC[C@H]1O[C@H]2C[C@H]3[C@@H]4CC[C@@H]5C[C@@H](OCc6ccccc6)CC[C@]5(C)[C@H]4CC[C@]3(C)[C@H]2[C@@H]1C)CN1CCCC1
IC50 [1]: 26.8 µM | IC50 [2]: 37.6 µM | IC50 [3]: 27.1 µM | IC50 [4]: 23.6 µM | IC50 [5]: 30.4 µM | IC50 [6]: 36 µM

CO[C@H]1CC[C@@]2(C)[C@H](CC[C@@H]3[C@@H]2CC[C@]2(C)[C@H]4[C@H](C)[C@@H](CC[C@@H](C)CN5CCCC5)O[C@H]4C[C@@H]32)C1
IC50 [5]: 4.24 µM

CCN(CC)C[C@@H](C)CC[C@H]1O[C@H]2C[C@H]3[C@@H]4CC[C@@H]5C[C@@H](OCc6ccc(OC)cc6)CC[C@]5(C)[C@H]4CC[C@]3(C)[C@H]2[C@@H]1C
IC50 [1]: > 100 µM | IC50 [2]: 4.83 µM | IC50 [3]: 14.3 µM | IC50 [4]: 12.9 µM | IC50 [5]: 13.9 µM | IC50 [6]: 14.7 µM

C[C@H](CO)CC[C@H]1O[C@H]2C[C@H]3[C@@H]4CC[C@@H]5C[C@@H](OCc6ccc(F)cc6)CC[C@]5(C)[C@H]4CC[C@]3(C)[C@H]2[C@@H]1C
IC50 [1]: 11.7 µM | IC50 [2]: 44.1 µM | IC50 [3]: 25.1 µM | IC50 [4]: 38.8 µM | IC50 [5]: 14.5 µM | IC50 [6]: 97.3 µM

CCN(CC)C[C@@H](C)CC[C@H]1O[C@H]2C[C@H]3[C@@H]4CC[C@@H]5C[C@@H](OCc6ccc(F)cc6)CC[C@]5(C)[C@H]4CC[C@]3(C)[C@H]2[C@@H]1C
IC50 [1]: > 100 µM | IC50 [2]: 45.2 µM | IC50 [3]: 18 µM | IC50 [4]: > 100 µM | IC50 [5]: 26.4 µM | IC50 [6]: > 100 µM

C[C@@H](CC[C@H]1O[C@H]2C[C@H]3[C@@H]4CC[C@@H]5C[C@@H](OCc6ccc(F)cc6)CC[C@]5(C)[C@H]4CC[C@]3(C)[C@H]2[C@@H]1C)CN1CCNCC1
IC50 [1]: 16.8 µM | IC50 [2]: 16.7 µM | IC50 [3]: 14.3 µM | IC50 [4]: 31.3 µM | IC50 [5]: 8.61 µM | IC50 [6]: 15.6 µM | Ratio IC50 [8]: 4.7

C[C@H](CO)CC[C@H]1O[C@H]2C[C@H]3[C@@H]4CC[C@@H]5C[C@@H](OCc6ccccc6)CC[C@]5(C)[C@H]4CC[C@]3(C)[C@H]2[C@@H]1C
IC50 [1]: 10.1 µM | IC50 [2]: 22.1 µM | IC50 [3]: 34.4 µM | IC50 [4]: 19.8 µM | IC50 [5]: 14.5 µM | IC50 [6]: 25 µM

C[C@@H](CC[C@H]1O[C@H]2C[C@H]3[C@@H]4CC[C@@H]5C[C@@H](OCc6ccc(F)cc6)CC[C@]5(C)[C@H]4CC[C@]3(C)[C@H]2[C@@H]1C)CN1CCCC1
IC50 [1]: 12.9 µM | IC50 [2]: 5.13 µM | IC50 [3]: 8.98 µM | IC50 [4]: 7.1 µM | IC50 [5]: 4.38 µM | IC50 [6]: 9.68 µM | Ratio IC50 [8]: 9.2

O=c1[nH]cc(F)c(=O)[nH]1 [FLUOROURACIL]
IC50 [4]: 48.7 µM | IC50 [5]: 10.2 µM

C[C@@H](CC[C@H]1O[C@H]2C[C@H]3[C@@H]4CC[C@@H]5C[C@@H](OCc6ccc(F)cc6)CC[C@]5(C)[C@H]4CC[C@]3(C)[C@H]2[C@@H]1C)CN1CCN(C)CC1
IC50 [1]: > 100 µM | IC50 [2]: 44.1 µM | IC50 [3]: 13.9 µM | IC50 [4]: > 100 µM | IC50 [5]: 35.6 µM | IC50 [6]: > 100 µM

C[C@@H](CC[C@H]1O[C@H]2C[C@H]3[C@@H]4CC[C@@H]5C[C@@H](OCc6ccccc6)CC[C@]5(C)[C@H]4CC[C@]3(C)[C@H]2[C@@H]1C)CN1CCNCC1
IC50 [1]: > 100 µM | IC50 [2]: > 100 µM | IC50 [3]: > 100 µM | IC50 [4]: > 100 µM | IC50 [5]: > 100 µM | IC50 [6]: > 100 µM

COc1ccc(CO[C@H]2CC[C@@]3(C)[C@H](CC[C@@H]4[C@@H]3CC[C@]3(C)[C@H]5[C@H](C)[C@@H](CC[C@H](C)CN6CCNCC6)O[C@H]5C[C@@H]43)C2)cc1
Activity [9]: 4.51% | Activity [10]: Active | IC50 [1]: 9.07 µM | Activity [11]: 5.21% | Activity [2]: Dose-dependent effect | Activity ([2]; record 2): 2.95 µM | Activity [12]: Active | Activity [13]: 4.35% | IC50 [3]: 4.43 µM | Activity [14]: Active | Activity [15]: Active | IC50 [4]: 4.92 µM | IC50 [5]: 4.35 µM | Activity [16]: Active | Activity [17]: 3.24% | IC50 [6]: 8.83 µM | Activity [18]: 5.8% | fold change (FC) [19]: 13 | Ratio IC50 [20]: 16.7 | Activity [21]: 7.27% | fold change (FC) [22]: 16 | Activity [23]: Active

CO[C@H]1CC[C@@]2(C)[C@H](CC[C@@H]3[C@@H]2CC[C@]2(C)[C@H]4[C@H](C)[C@@H](CC[C@@H](C)CN5CCNCC5)O[C@H]4C[C@@H]32)C1
IC50 [5]: 35.5 µM
